Source: patent publication US9340500B2, “Aromatic heterocyclic derivative having TRPV4-inhibiting activity” (SHIONOGI & CO., LTD., priority 2011, dated 2016)

Target: human TRPV4 (Homo sapiens (Human), UniProt Q9HBA0)
Assay: Test Example 1: measurement of TRPV4 inhibitory activity (Fluo 4-AM, FLIPR TETRA, 4α-PDD 1 μmol/L)
Format: cell-based
Details: hTRPV4/CHO cells; for IC50: 4α-PDD 1 μmol/L; for Ki: calculated from IC50 and 4α-PDD EC50
Protocol: For each compound, TRPV4 inhibitory activity was measured using cells.
(1) The TRPV4 inhibitory activity was measured using CHO-K1 cells stably expressing human TRPV4 (hTRPV4/CHO cells).
(2) In the day before the experimental day, frozen cell were thawed and washed with the culture medium (MEM-α, 10% FBS, 2 mmol/L GlutaMax, 50 unit Penicillin, 50 μg/mL Streptomycin). Then cells were suspended in the culture medium.
(3) The 384-well plates which hTRPV4/CHO cells were seeded at densities of 4000 cells/well in the culture medium and cultured in a CO2 incubator in the presence of 5% CO2 at 37° C. for overnight was used as assay plates.
(4) The assay plate was washed with assay buffer (Hanks, 20 mmol/L HEPES, 2.5 mmol/L probenecid, pH7.4), and the buffer were remained at 20 μL/well.
(5) 10 μl of dye loading buffer (9 μmol/L Fluo 4-AM, 0.09% Pluronic F-127/assay buffer) was added to each well, then the assay plate was incubated in a CO2 incubator in the presence of 5% CO2 at 37° C. for one hour. (final 3 μmol/L Fluo4-AM).
(6) The assay plate was washed with the assay buffer, and the buffers were remained at 20 μL/well. Then the assay plate was incubated for 10 min at room temperature.
(7) Diluted compound solution was dispensed to each well in the compound plate, and mixed with built-in Pipette and Mixer of the Fluorescence analysis system FLIPR TETRA (Molecular devices).
(8) After incubation for 5 min, 20 μL of 4α-PDD solution were applied to each well of assay plate and mixed with the FLIPR TETRA. (final 1 μmol/L 4α-PDD)
(9) The fluorescent intensity was measured with FLIPR TETRA system for 10 min from the point of time addition the compound solution, at Ex 470-495 nm, Em 515-575 nm wavelength.
TRPV4 inhibitory activity (IC50 value and Ki value) of a compound was evaluated according to the following procedure.
(10) In the presence of the compound, the difference between maximal and minimal of fluorescent intensity value for 5 min from just before addition of 4α-PDD solution was calculated, and it was referred as Max-Min value. Max-Min value of the Ruthenium Red at 20 μM was defined as 100% inhibitory activity, Max-Min value in the absence of the compound was defined as 0% inhibitory activity. The TRPV4 inhibitory activity of the compound was calculated by the following formula. (1−(Max-Min value of the compound−100% inhibitory activity)/(0% inhibitory activity−100% inhibitory activity))×100 (11) Inhibitory activity was calculated at 10 points with three fold serial dilution, in the final concentration of the compound from 10 μmmol/L to 0.5 nmol/L, the IC50 value was calculated by logistic approximation method. (12) In the absence of the compound, the fluorescent intensity was measured as the same method with 10, 1, 0.5, 0.2, and 0 μmol/L as final concentration of 4α-PDD. The difference of minimal and maximal fluorescent intensity value for 5 min from just before addition of 4α-PDD solution was calculated, and it was referred as Max-Min value. Max-Min value of the 4α-PDD at 10 μmol/L was defined as 100% activity, Max-Min value in the absence of 4α-PDD was defined as 0% activity. The TRPV4 activity of each concentration of 4α-PDD was calculated by the following formula. (Max-Min value of the each 4α-PDD concentration−0% activity)/(100% activity−0% activity))×100 (13) Effective activity was calculated in 5 concentrations of 4α-PDD the above. The EC50 value was calculated by logistic approximation method. The Ki value of a compound was calculated by the following formula. Ki (nmol/L)=IC50 value (nmol/L)/(1+[…] (test 4α-PDD concentration (nmol/L)/EC50 value (nmol/L))

Chain of human TRPV4 (Q9HBA0 whole entry): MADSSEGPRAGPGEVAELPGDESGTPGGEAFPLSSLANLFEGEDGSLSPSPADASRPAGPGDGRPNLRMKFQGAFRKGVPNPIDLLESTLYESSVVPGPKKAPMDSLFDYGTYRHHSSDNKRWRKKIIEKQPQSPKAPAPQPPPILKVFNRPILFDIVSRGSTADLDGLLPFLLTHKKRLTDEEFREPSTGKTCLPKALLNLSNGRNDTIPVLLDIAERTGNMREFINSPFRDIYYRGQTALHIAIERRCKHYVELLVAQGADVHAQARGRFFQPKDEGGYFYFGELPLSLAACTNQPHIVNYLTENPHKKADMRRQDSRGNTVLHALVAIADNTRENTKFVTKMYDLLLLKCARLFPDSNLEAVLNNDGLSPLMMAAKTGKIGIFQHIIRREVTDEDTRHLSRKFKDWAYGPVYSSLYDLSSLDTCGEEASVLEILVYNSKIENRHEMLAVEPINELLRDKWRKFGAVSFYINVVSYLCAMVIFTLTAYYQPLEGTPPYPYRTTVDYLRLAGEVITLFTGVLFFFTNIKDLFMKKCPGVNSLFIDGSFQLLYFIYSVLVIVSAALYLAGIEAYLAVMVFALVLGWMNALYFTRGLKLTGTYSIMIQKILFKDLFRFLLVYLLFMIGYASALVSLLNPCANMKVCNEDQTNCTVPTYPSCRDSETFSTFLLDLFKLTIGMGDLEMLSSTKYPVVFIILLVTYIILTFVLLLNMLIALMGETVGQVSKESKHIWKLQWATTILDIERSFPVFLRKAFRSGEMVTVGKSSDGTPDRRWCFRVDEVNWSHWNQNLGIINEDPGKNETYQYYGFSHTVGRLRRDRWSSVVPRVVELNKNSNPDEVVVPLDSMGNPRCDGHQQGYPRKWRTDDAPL

| IC50 [µM] | Ki [nM] | SMILES |
| --- | --- | --- |
| 1.5 | 560 | Cc1c(C(=O)Nc2cccc(C(F)(F)F)c2)cc(C(C)(C)C)n1CCC(=O)N1CCOCC1 [Compound I-091] |
| 1.4 | 530 | Cc1c(C(=O)Nc2cccc(C(F)(F)F)c2)cc(C(C)(C)C)n1CCC(=O)N1CCNCC1 [Compound I-093] |
| 0.97 | 380 | Cc1c(C(=O)Nc2cccc(C(F)(F)F)c2)cc(C(C)(C)C)n1CCS(=O)(=O)N1CCOCC1 [Compound I-095] |
| 0.43 | 130 | Cc1c(C(=O)Nc2cccc(C(F)(F)F)c2)cc(C(C)(C)C)n1CCC(C)N1CCOCC1 (stereo not drawn) [Compound I-097] |
| 1.9 | 590 | Cc1c(C(=O)Nc2cccc(C(F)(F)F)c2)cc(C(C)(C)C)n1CCS(=O)(=O)N1CCNCC1 [Compound I-098] |
| 5.9 | 2100 | Cc1c(C(=O)Nc2cccc(C(F)(F)F)c2)cc(C(C)(C)C)n1C1CCNCC1 [Compound I-099] |
| 7.4 | 2600 | CC(=O)N1CCC(n2c(C(C)(C)C)cc(C(=O)Nc3cccc(C(F)(F)F)c3)c2C)CC1 [Compound I-101] |
| 4.2 | 1500 | Cc1c(C(=O)Nc2cccc(C(F)(F)F)c2)cc(C(C)(C)C)n1C1CCN(S(C)(=O)=O)CC1 [Compound I-102] |
| 3.9 | 1200 | Cc1c(C(=O)Nc2cccc(C(F)(F)F)c2)cc(C(C)(C)C)n1C1CCN(C)CC1 [Compound I-106] |
| 6.6 | 2100 | COC(=O)CN1CCC(n2c(C(C)(C)C)cc(C(=O)Nc3cccc(C(F)(F)F)c3)c2C)CC1 [Compound I-107] |
| 0.54 | 170 | Cc1c(C(=O)Nc2cccc(C(F)(F)F)c2)cc(C(C)(C)C)n1CC(C)(C)CN1CCOCC1 [Compound I-108] |
| 6.3 | 2300 | Cc1c(C(=O)Nc2cccc(C(F)(F)F)c2)cc(C(C)(C)C)n1C1CCN(C2CCNCC2)CC1 [Compound I-109] |
| 6.6 | 2400 | Cc1c(C(=O)Nc2cccc(C(F)(F)F)c2)cc(C(C)(C)C)n1C1CCN(CCO)CC1 [Compound I-110] |
| 4.1 | 1500 | Cc1c(C(=O)Nc2cccc(C(F)(F)F)c2)cc(C(C)(C)C)n1[C@H]1CC[C@H](N)CC1 [Compound I-111] |
| 5.6 | 1500 | CN[C@H]1CC[C@H](n2c(C(C)(C)C)cc(C(=O)Nc3cccc(C(F)(F)F)c3)c2C)CC1 [Compound I-112] |
| 5.8 | 1500 | Cc1c(C(=O)Nc2cccc(C(F)(F)F)c2)cc(C(C)(C)C)n1[C@H]1CC[C@H](N(C)C)CC1 [Compound I-113] |
| 8.7 | 2300 | Cc1c(C(=O)Nc2cccc(C(F)(F)F)c2)cc(C(C)(C)C)n1[C@H]1CC[C@H](NS(C)(=O)=O)CC1 [Compound I-114] |
| 6 | 1600 | Cc1c(C(=O)Nc2cccc(C(F)(F)F)c2)cc(C(C)(C)C)n1[C@H]1CC[C@@H](NS(C)(=O)=O)CC1 [Compound I-115] |
| 5.3 | 1500 | Cc1c(C(=O)Nc2cccc(C(F)(F)F)c2)cc(C(C)(C)C)n1[C@H]1CC[C@@H](N)CC1 [Compound I-116] |
| 3.5 | 1100 | Cc1c(C(=O)Nc2cccc(C(F)(F)F)c2)cc(C(C)(C)C)n1[C@H]1CC[C@@H](N(C)S(C)(=O)=O)CC1 [Compound I-120] |
| 1.4 | 450 | Cc1c(C(=O)Nc2cccc(C(F)(F)F)c2)cc(C(C)(C)C)n1CC(C)(C)CN1CCNCC1 [Compound I-123] |
| 0.26 | – | Cc1c(C(=O)Nc2cccc(C(F)(F)F)c2)cc(C(C)(C)C)n1CCC(C)N1CCNCC1 (stereo not drawn) [Compound I-124] |

Second part, the molecule before the results:

| SMILES | IC50 [µM] | Ki [nM] |
| --- | --- | --- |
| Cc1c(C(=O)Nc2cccc(C(F)(F)F)c2)cc(C2CCCCC2)n1CCCN1CCOCC1 [Compound I-072] | 0.045 | 21 |
| Cc1c(C(=O)Nc2cccc(C(F)(F)F)c2)cc(C2CCN(C(=O)OCc3ccccc3)CC2)n1CCCN1CCOCC1 [Compound I-075] | 0.27 | 130 |
| CCOC(=O)CCn1c(C(C)(C)C)cc(C(=O)Nc2cccc(C(F)(F)F)c2)c1C [Compound I-090] | 1.1 | 380 |
| CNC(=O)CCn1c(C(C)(C)C)cc(C(=O)Nc2cccc(C(F)(F)F)c2)c1C [Compound I-092] | 6.4 | 2400 |
| CNS(=O)(=O)CCn1c(C(C)(C)C)cc(C(=O)Nc2cccc(C(F)(F)F)c2)c1C [Compound I-094] | 6.1 | 2200 |
| CNC(C)CCn1c(C(C)(C)C)cc(C(=O)Nc2cccc(C(F)(F)F)c2)c1C (stereo not drawn) [Compound I-096] | 0.42 | 130 |
| CNCC(C)(C)Cn1c(C(C)(C)C)cc(C(=O)Nc2cccc(C(F)(F)F)c2)c1C [Compound I-100] | 0.83 | 290 |
| Cc1c(S(=O)(=O)NCc2cccc(C(F)(F)F)c2)cc(C(C)(C)C)n1CCCN1CCOCC1 [Compound I-104] | 7.7 | 2700 |
| CNCCCn1c(C(C)(C)C)cc(S(=O)(=O)Nc2cccc(C(F)(F)F)c2)c1C [Compound I-117] | 9.2 | 2500 |
| Cc1c(S(=O)(=O)Nc2cccc(C(F)(F)F)c2)cc(C(C)(C)C)n1CCCN1CCOCC1 [Compound I-118] | 9.2 | 2500 |
| CNCC(F)(F)Cn1c(C(C)(C)C)cc(C(=O)Nc2cccc(C(F)(F)F)c2)c1C [Compound I-121] | 1.4 | 450 |
| Cc1c(C(=O)Nc2cccc(C(F)(F)F)c2)cc(C(C)(C)C)n1CC(F)(F)CN1CCOCC1 [Compound I-122] | 0.78 | 240 |
| Cc1c(C(=O)Nc2cccc(C(F)(F)F)c2)cc(C(C)(C)C)n1CC(F)(F)CN1CCNCC1 [Compound I-125] | 1.5 | – |
| Cc1c(-c2nc3ccccc3o2)cc(C(C)(C)C)n1CCCN1CCNCC1 [Compound I-126] | 4.5 | – |
| Cc1c(-c2nc3ccccc3[nH]2)cc(C(C)(C)C)n1CCCN1CCOCC1 [Compound I-127] | 3.1 | – |
| Cc1c(-c2nc3ccccc3[nH]2)cc(C(C)(C)C)n1CCCN1CCNCC1 [Compound I-128] | 5.4 | – |
| CNCCCn1c(C(C)(C)C)cc(-c2nc3ccccc3[nH]2)c1C [Compound I-129] | 6.4 | – |
